In PubChem BioAssay (NCI):
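Where inhibition never reached the appropriate level, the endpoint shown equals the highest concentration tested. Otherwise, values were interpolated linearly from a five-concentration, 48-hour dose response in 96-well plates. The concentration for 50% growth inhibition is given as GI50. TGI: concentration producing complete growth inhibition.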

Experiments:
Experiment in all cases: inhibition of tumour cell growth, NCI panel, 48 h
[1] = system: SK-MEL-2 melanoma
[2] = system: RXF 393 renal
[3] = system: SF-295 CNS
[4] = system: NCI-H226 lung
[5] = system: SR leukemia
[6] = system: HCC-2998 colon
[7] = system: SK-MEL-28 melanoma
[8] = system: M14 melanoma
[9] = system: SW-620 colon
[10] = system: IGROV1 ovarian

SMILES | TGI [1] | TGI [2] | TGI [3] | TGI [4] | TGI [5] | TGI [6] | TGI [7] | TGI [8] | TGI [9] | TGI [10] | GI50 [1] | GI50 [2] | GI50 [3] | GI50 [4] | GI50 [5] | GI50 [6] | GI50 [7] | GI50 [8] | GI50 [9] | GI50 [10]
CC(C)S(=O)(=O)n1c(N)nc2ccc(/C(=N/O)c3ccccc3)cc21 | 54.1 µM | 45.5 µM | > 100 µM | 23.4 µM | 27.2 µM | 53.2 µM | > 100 µM | 65.9 µM | 45.3 µM | 48 µM |  |  |  |  |  |  |  |  |  | 
O=C(N/N=C\c1cc(Cl)ccc1O)N/N=C/c1cc(Cl)ccc1O | > 100 µM | > 100 µM | > 100 µM | > 100 µM | > 100 µM | > 100 µM | > 100 µM | > 100 µM | > 100 µM | > 100 µM | > 100 µM | > 100000 nM | 2.37 µM | > 100 µM | 78500 nM | 3.34 µM | > 100 µM | 5240 nM | 807 nM | 1.56 µM
Cc1cc(C(=O)NCCN(C)C)c2nc3ccccc3nc2c1 | 17.2 µM | 19.7 µM | > 27.8 µM | 14.3 µM | > 100 µM | 35.2 µM | 16.1 µM | > 33.5 µM | > 37.4 µM | > 29.5 µM |  |  |  |  |  |  |  |  |  | 
CCCCCCCCSC(SCCCCCCCC)=C1C(=O)N(c2ccccc2)N=C1C | > 100 µM | > 100 µM | > 100 µM | > 100 µM | 34.6 µM | > 100 µM | > 100 µM | > 100 µM | 29 µM | > 100 µM |  |  |  |  |  |  |  |  |  | 
O=C(/C=C/c1cccs1)Nc1ncc(Cc2ccccc2F)s1 | > 100 µM | 0.508 µM | > 100 µM | > 100 µM | > 100 µM | > 100 µM | > 100 µM |  | > 100 µM | > 100 µM | 0.518 µM | 192 nM | 0.244 µM |  | 52.2 nM | 0.463 µM | 0.886 µM | 120 nM | 159 nM | 0.541 µM
CCCC/C(C)=N/NC(N)=S | > 100 µM | > 100 µM | > 100 µM | > 100 µM | > 100 µM | > 100 µM | > 100 µM | > 100 µM | > 100 µM | > 100 µM |  |  |  |  |  |  |  |  |  | 
CCOC(=O)c1cc2cc([N+](=O)[O-])ccc2oc1=O |  | > 100 µM | > 100 µM | > 100 µM | > 100 µM | > 100 µM | > 100 µM | > 100 µM | > 100 µM | > 100 µM |  |  |  |  |  |  |  |  |  | 
CC(=O)OCC1OC(O[C@@H]2C[C@H]3C(C)(C)[C@H](OC(C)=O)CC[C@]3(C)[C@H]3CC[C@@H]4[C@]5(CC[C@@]4(C)[C@@]32C)O[C@@H]([C@H](O)C(C)(C)O)C[C@@H]5C)C(O)C(O)C1O (some centres undefined) | 19.7 µM | 16.1 µM | 19.2 µM | 28.2 µM | 12.9 µM | 15.9 µM | 24 µM | 17.6 µM | 22.9 µM | 21.6 µM | 6.04 µM |  | 6.43 µM | 10.7 µM | 3080 nM | 3.64 µM | 10.2 µM | 5010 nM | 10400 nM | 9.57 µM
CCc1ccc(/C=C2/SC(=S)NC2=O)cc1 | 41.3 µM | 55.7 µM | 56.8 µM | 71.3 µM | > 84.9 µM | 45.7 µM | 79.7 µM | 82.8 µM | > 100 µM | > 100 µM | 16.4 µM | 18900 nM | 18.2 µM | 20.3 µM | 19400 nM | 18.8 µM | 22.9 µM | 24300 nM | 27200 nM | 37.5 µM
C=C1C(=O)O[C@H]2[C@H](OC(C)=O)[C@@H](C)CCC/C(C)=C/CC[C@]3(CO3)[C@H](O)C[C@@H]12 | 31.9 µM | 11.7 µM | 49.3 µM | 38.6 µM | 3.94 µM | 28.4 µM | 4.8 µM |  | 10.7 µM | 12.8 µM | 14.8 µM | 3160 nM | 19.7 µM | 16.3 µM | 1320 nM | 15.2 µM | 2.21 µM |  | 3240 nM | 3.37 µM
Fc1cc(Nc2ccc3c(OCCCN4CCOCC4)cccc3n2)ccc1Cl | 4.04 µM | 4.74 µM | 3.96 µM | 7.83 µM | 6.64 µM | 3.49 µM | 3.56 µM | 4.42 µM |  | 9.32 µM | 1.96 µM | 2160 nM | 1.97 µM | 2.76 µM | 1690 nM | 1.78 µM | 1.82 µM | 2050 nM |  | 3.19 µM
ClCc1ccc(Cn2cnc3ncnc(Cl)c32)cc1 | > 100 µM | 4.14 µM | 5.07 µM | 12 µM | 2.7 µM | 2.87 µM |  | 13 µM | 7.18 µM | 31.1 µM | 6.3 µM | 1670 nM | 2.06 µM | 2.99 µM | 822 nM | 1.42 µM |  | 2730 nM | 2580 nM | 7.61 µM
NC(=O)c1ccc(-c2c3ccccc3cc3c2ccc2ccccc23)cc1 |  | 7.48 µM | 31 µM | 52.3 µM | > 100 µM | 82.4 µM | 36 µM | 20.1 µM | 19.7 µM | > 100 µM |  | 2120 nM | 5.11 µM | 6.97 µM | 1300 nM | 5.22 µM | 4.39 µM | 2040 nM | 2560 nM | 7.6 µM
COc1ccc(-c2nc(N)nc(-c3cc(C)ccc3O)c2Cl)cc1 |  | 99.7 µM | > 100 µM | > 100 µM | > 100 µM | > 100 µM | > 100 µM | > 100 µM | > 100 µM | > 100 µM |  |  |  |  |  |  |  |  |  | 
Cc1ccc(C)c(NC(=O)CCc2n[nH]c(=S)o2)c1 |  | > 100 µM | > 100 µM | > 100 µM | > 100 µM | > 100 µM | > 100 µM | > 100 µM | > 100 µM | > 100 µM |  |  |  |  |  |  |  |  |  | 
COc1ccc(/C=C/CO)cc1OC | > 100 µM | > 100 µM | > 100 µM | > 100 µM | > 100 µM | > 100 µM | > 100 µM |  | > 100 µM | > 100 µM |  |  |  |  |  |  |  |  |  | 
S=C1OC2C3C4CC5C3C(O1)C1C5C4C21 (centres undefined) |  | > 100 µM | > 100 µM | > 100 µM | > 100 µM | > 100 µM | > 100 µM | > 100 µM | > 100 µM | > 100 µM |  |  |  |  |  |  |  |  |  | 
